# Measured values taken from US8252563B2, “Reductase, gene thereof and method of using the same” (Sumitomo Chemical Company, Limited, priority 2007, dated 2012).
# Assays:
# [1] = tested on: purified invented protein (active fragment (C)); test: Substrate specificity: reduction activity of the invented protein on carbonyl compounds (NADPH absorbance decrease at 340 nm); type: biochemical, Stenotrophomonas sp. SC-1 strain
# [2] = Optimal pH of the reduction activity on ethyl benzoylformate; type: biochemical; details: ethyl benzoylformate 10 mM, NADPH 0.5 mM, pH 5.5 to 10, 30° C., 1 minute, 340 nm
# [3] = substrate 1 mM, NADPH 0.5 mM, 100 mM phosphate buffer pH 7, 30° C., 5 minutes, relative value, activity on ethyl benzoylformate = 100%
Molecule,"Relative activity (%) [1, 3]",other results
O=C(O)CCC(=O)c1ccccc1 [3-Benzoylpropionic acid],3.3%,
CCOC(=O)C(C)=O [Ethyl pyruvate],33.7%,
CCOC(=O)C(=O)CCc1ccccc1 [Ethyl 4-phenyl2-oxobutyrate],1.5%,
COC(=O)CC(=O)CBr [Methyl 4-bromo-3-oxobutyrate],3.9%,
"CCOC(=O)C(=O)c1ccccc1 [Eethyl benzoylformate, ethyl benzoylformate]",100%,
CCOC(=O)CC(=O)CCl [Ethyl 4-chloro-3-oxobutyrate],,Relative activity (%) ([1]; pH 7): 0.5%
CCC=O [Propionaldehyde],8.6%,
"invented protein (active fragment (C)): purified reductase (SEQ ID NO:1) of Stenotrophomonas sp. SC-1, expressed in E. coli HB101 with plasmid pTrcRs (protein, listed as Stenotrophomonas sp.) MTATRELGRSGLHVAPIAFGGNVFGWSADEKTSFALLDAFVEAGFNLVDTADVYSAWVPGNQGGESETILGRWFKHSGKRDKVVLATKVAKWSEHPGLSADNITAAVEDSLRRLQTDVIDLYQAHEDDESTPLESTLAAFGRLIEQGKVRAIGASNYSAERLSDALKVSADYKLPRYETLQPEYNLYDRAGYEAGLEAVVRDAQLGVISYYSLASGFLSGKYRSAADAGKSSARGQSVVDKYVNPRGLRILGALDDVASTHGVSPSQIAIAWLIARPGITAPIVSATSVEQLNDVLAAAKVALSAQEVQQLDAASAEQA",,optimal pH [2]: 7.0
